Measured values taken from PMC8330735 (Journal of Enzyme Inhibition and Medicinal Chemistry, 2021).

What was measured:
human recombinant COX-2 = target: T1, human recombinant COX-2 (Homo sapiens, UniProt P35354); assay: In vitro COX-2 inhibitory assay (colorimetric Cayman kit); conditions: for Selectivity Index (SI): COX-1 IC50/COX-2 IC50
T1 sequence (P35354 18-604): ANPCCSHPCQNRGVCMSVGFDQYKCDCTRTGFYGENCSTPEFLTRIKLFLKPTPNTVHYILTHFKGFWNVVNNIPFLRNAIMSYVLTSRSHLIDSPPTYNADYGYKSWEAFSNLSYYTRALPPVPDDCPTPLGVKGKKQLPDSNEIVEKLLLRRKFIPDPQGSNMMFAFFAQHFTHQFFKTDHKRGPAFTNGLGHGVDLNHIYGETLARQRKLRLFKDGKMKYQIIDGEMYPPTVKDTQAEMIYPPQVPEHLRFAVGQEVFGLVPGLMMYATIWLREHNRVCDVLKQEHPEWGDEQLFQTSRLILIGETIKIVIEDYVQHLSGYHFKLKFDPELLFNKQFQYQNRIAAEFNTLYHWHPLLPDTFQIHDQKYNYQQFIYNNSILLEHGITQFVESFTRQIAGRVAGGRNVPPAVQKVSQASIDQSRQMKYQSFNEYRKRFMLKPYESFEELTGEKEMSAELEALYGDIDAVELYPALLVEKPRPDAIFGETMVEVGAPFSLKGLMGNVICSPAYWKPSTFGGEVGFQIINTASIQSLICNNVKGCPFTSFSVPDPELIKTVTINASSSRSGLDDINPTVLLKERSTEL
Description: (§1) All the newly synthesised compounds were tested for their ability to inhibit COX-1 and COX-2 enzymes using a screening assay method.

ovine COX-1 = target: T2, ovine COX-1 (Ovis aries, UniProt P05979); assay: In vitro COX-1 inhibitory assay (colorimetric Cayman kit)
T2 sequence (P05979 25-600): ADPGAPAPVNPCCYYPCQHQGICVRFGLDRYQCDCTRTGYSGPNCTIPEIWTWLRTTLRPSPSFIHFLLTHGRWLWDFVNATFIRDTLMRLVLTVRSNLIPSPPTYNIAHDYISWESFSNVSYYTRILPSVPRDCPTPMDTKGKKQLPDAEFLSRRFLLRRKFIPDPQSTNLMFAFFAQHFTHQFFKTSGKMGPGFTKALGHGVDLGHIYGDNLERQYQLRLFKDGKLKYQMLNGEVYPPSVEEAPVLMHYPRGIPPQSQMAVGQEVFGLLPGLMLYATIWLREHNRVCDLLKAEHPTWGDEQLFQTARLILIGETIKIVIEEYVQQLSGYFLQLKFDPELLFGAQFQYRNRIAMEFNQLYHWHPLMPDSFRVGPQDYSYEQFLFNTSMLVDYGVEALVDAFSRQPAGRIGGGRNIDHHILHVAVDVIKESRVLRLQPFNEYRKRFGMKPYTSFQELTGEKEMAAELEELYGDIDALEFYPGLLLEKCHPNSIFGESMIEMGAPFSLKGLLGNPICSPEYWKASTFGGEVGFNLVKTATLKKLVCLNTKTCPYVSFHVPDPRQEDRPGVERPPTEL
Description: as §1

[1] = test system: stomach ulceration in rats; conditions: rat, in vivo, 2 days
Description: The rats from the previous experiment were fasted for 12 h., followed by the administration of additional doses of the selected compounds or the two references for two consecutive days. Six hrs after the last treatment, the animals were sacrificed, and their stomachs were removed, washed with saline solution (0.9%) and examined for ulceration using a magnifying lens. The ulcer scores were estimated according to the method prescribed by Kulkarni and as detailed in our previous studies[36–38]. The following scores were individually assigned to each lesion: normal coloured stomach, 0; red colouration, 0.5; spot ulcers, 1; haemorrhagic streaks, 1.5; ulcer >3 but <5 mm, 2; and ulcers >5 mm, 3.

[2] = test system: ROS production in LPS-activated RAW 264.7 macrophages; assay: ROS production in LPS-activated RAW 264.7 macrophages (DCFH-DA); type: cell-based; conditions: Mus musculus, RAW264.7; LPS 1 µg/mL activated RAW 264.7
Description: HCA7 colorectal cancer cell line was obtained from Sigma. […] Louis, MO) containing 10% heat-inactivated foetal bovine serum (HI-FBS) (Gibco, USA), 100 μg/mL streptomycin (Invitrogen, USA), and […] penicillin (Invitrogen, USA)[40]. HCA7 and RAW 264.7 cells were cultured in Dulbecco's minimal essential media (DMEM, Invitrogen) containing 10% HI-FBS, sodium pyruvate (1 mM), penicillin ([…]), and streptomycin (100 mg/m)[41]^,[42]. […] The cells were cultured, incubated with the different test compounds, and activated with LPS (1 µg/mL) as detailed above. […] IC50 values were calculated from the dose–response curves.

[3] = test system: carrageenan-induced rat paw oedema; assay: Carrageenan-induced rat paw oedema test; type: in vivo; conditions: compounds and celecoxib 50 mg/kg, ibuprofen and indomethacin 20 mg/kg; for Mean oedema thickness 1h: 1 h after carrageenan; for Mean oedema thickness 1h / Mean oedema thickness 2h / Mean oedema thickness 3h / Mean oedema thickness 4h / Mean oedema thickness 5h / Mean oedema thickness 24h / Mean oedema thickness 0h: mean ± SEM, n = 5; for Mean oedema thickness 2h: 2 h after carrageenan; for Mean oedema thickness 3h: 3 h after carrageenan; for Mean oedema thickness 4h: 4 h after carrageenan; for Mean oedema thickness 5h: 5 h after carrageenan; for Mean oedema thickness 24h: 24 h after carrageenan; for Mean oedema thickness 0h: before carrageenan (0 h); for Average oedema inhibition%: from area under the curve of all time points
Description: The rats were divided into nine groups (n = 5/group). All tested compounds were suspended in 1% Tween-80. Group 1, controls, were given the vehicle (1% Tween80, 10 ml/kg). […] The rats were given the drugs 1 h before the injection of carrageenan solution (1% in 0.9% NaCl, 0.1 ml) (Sigma Aldrich, USA) in the sub-planter tissue of the right hind paw. The paw thickness (mm) was measured using a calliper before (0 h) and after carrageenan injection at 1, 2, 3, 4, 5 and 24 h. The inhibition of oedema thickness was calculated using the following formula (control– drug/control) × 100.

[4] = test system: NO production in LPS-activated RAW 264.7 macrophages; assay: NO production in LPS-activated RAW 264.7 macrophages (DAF-FM); type: cell-based; conditions: Mus musculus, RAW264.7; LPS 1 µg/mL activated RAW 264.7
Description: HCA7 colorectal cancer cell line was obtained from Sigma. […] Louis, MO) containing 10% heat-inactivated foetal bovine serum (HI-FBS) (Gibco, USA), 100 μg/mL streptomycin (Invitrogen, USA), and […] penicillin (Invitrogen, USA)[40]. HCA7 and RAW 264.7 cells were cultured in Dulbecco's minimal essential media (DMEM, Invitrogen) containing 10% HI-FBS, sodium pyruvate (1 mM), penicillin ([…]), and streptomycin (100 mg/m)[41]^,[42]. […] Molecular Probes, USA). Briefly, RAW 264.7 cells were cultured in black 96-well plates (200,000 cells/mL, 100 µl/well) for 24 h. […] The fluorescence intensity, which is directly proportional to NO levels, was quantified, as detailed in our previous study. IC50 values were calculated from the dose–response curves.

Row | SMILES | melting point [°C] | IC50 (human recombinant COX-2) [µM] | Selectivity Index (SI) (human recombinant COX-2) | IC50 (ovine COX-1) [µM] | also measured
1 | COc1ccc(C2N(NC(=O)Cc3c[nH]c4ccccc34)C(=O)c3ccccc3N2C)cc1 (centres unmarked) [4c, 2-(1 h-indol-3-yl)-N-(2-(4-methoxyphenyl)-1-methyl-4-oxo-1,4-dihydroquinazolin-3(2H)-yl)acetamide] | 83 to 85 | 0.03 | 373.67 | 11.2 ± 0.13 | 
2 | CC(C)Cc1ccc(C(C)C(=O)NN2C(=O)c3ccccc3N(C)C2c2ccccc2)cc1 (centres unmarked) [7a, 2-(4-Isobutylphenyl)-N-(1-methyl-4-oxo-2-phenyl-1,4-dihydroquinazolin-3(2H)-yl) propenamide] | 85 to 89 | 0.05 ± 0.13 | 255.02 | 12.76 ± 0.1 | 
3 | CC(C)Cc1ccc(C(C)C(=O)NN2C(=O)c3ccccc3N(C)C2c2ccc(Cl)cc2)cc1 (centres unmarked) [7b, N-(2-(4-chlorophenyl)-1-methyl-4-oxo-1,4-dihydroquinazolin-3(2H)-yl)-2–(4-isobutylphenyl) propenamide] | 120 to 125 | 0.04 | 333.75 | 13.35 ± 0.1 | 
4 | COc1ccc(C2N(NC(=O)C(C)c3ccc(CC(C)C)cc3)C(=O)c3ccccc3N2C)cc1 (centres unmarked) [7d, 2-(4-Isobutylphenyl)-N-(2-(4-methoxyphenyl)-1-methyl-4-oxo-1,4-dihydroquinazolin-3(2H)-yl) propenamide] | 92 to 95 | 0.04 | 359.25 | 14.4 ± 0.16 | 
5 | CC(C)Cc1ccc(C(C)C(=O)NN2C(=O)c3ccccc3N(C)C2c2ccc(F)cc2)cc1 (centres unmarked) [7e] | 90 to 95 | 0.04 | 296.25 | 11.8 ± 0.15 | 
6 | NNC(=O)CSc1nc2ccccc2c(=O)n1NC(=O)c1ccccc1 [13a, N-(2-((2-hydrazinyl-2-oxoethyl)thio)-4-oxoquinazolin-3(4H)-yl)benzamide] | 208 to 213 | 0.04 | 254.75 | 10.2 ± 0.14 | 
7 | O=C(CSc1nc2ccccc2c(=O)n1NC(=O)c1ccccc1)NNC(=O)c1ccccc1 [14a, N-(2-((2-(2-benzoylhydrazinyl)-2-oxoethyl)thio)-4-oxoquinazolin-3(4H)-yl)benzamide] | 194 to 198 | 0.03 | 362.00 | 10.9 ± 0.2 | 
8 | O=C(CSc1nc2ccccc2c(=O)n1NC(=O)c1ccccc1)NNC(=O)c1ccc(Cl)cc1 [14b, N-(2-((2-(2-(4-chlorobenzoyl)hydrazinyl)-2-oxoethyl)thio)-4 oxoquinazolin-3(4H)-yl)benzamide] | 215 to 220 | 0.04 | 324.5 | 12.98 ± 0.12 | 
9 | O=C(CSc1nc2ccccc2c(=O)n1NC(=O)Cc1ccccc1)NNC(=O)c1ccc(Cl)cc1 [14d, N-(2-((2-(2-(4-chlorobenzoyl)hydrazinyl)-2-oxoethyl)thio)-4-oxoquinazolin-3(4H)-yl)-2-phenylacetamide] | 221 to 226 | 0.04 | 314.00 | 12.56 ± 0.11 | 
10 | CC(C)Cc1ccc(C(C)C(=O)O)cc1 (centres unmarked) [Ibuprofen, reference compound] |  |  |  |  | Average Ulcer number [1]: 3.8; Lesion Incidence (%) [1]: 100%; Number of rats with ulcer [1]: 5; IC50 [2]: 36.4 ± 1.45 µM; Mean oedema thickness 1h [3]: 1.76 ± 0.07 mm; Mean oedema thickness 2h [3]: 2.00 ± 0.15 mm; Mean oedema thickness 3h [3]: 1.74 ± 0.08 mm; Mean oedema thickness 4h [3]: 1.23 ± 0.16 mm; Mean oedema thickness 5h [3]: 1.36 ± 0.18 mm; Mean oedema thickness 24h [3]: 0.48 ± 0.15 mm; Mean oedema thickness 0h [3]: 0.00 ± 0.00 mm; Average oedema inhibition% [3]: 47.18%; IC50 [4]: 18.8 ± 1.19 µM
11 | COc1ccc2c(c1)c(CC(=O)O)c(C)n2C(=O)c1ccc(Cl)cc1 [Indomethacin, reference compound] |  |  |  |  | Average Ulcer number [1]: 12.4; Lesion Incidence (%) [1]: 100%; Number of rats with ulcer [1]: 5; IC50 [2]: 68.9 ± 1.29 µM; Mean oedema thickness 1h [3]: 2.00 ± 0.14 mm; Mean oedema thickness 2h [3]: 2.21 ± 0.12 mm; Mean oedema thickness 3h [3]: 1.82 ± 0.13 mm; Mean oedema thickness 4h [3]: 2.02 ± 0.16 mm; Mean oedema thickness 5h [3]: 1.87 ± 0.18 mm; Mean oedema thickness 24h [3]: 0.49 ± 0.10 mm; Mean oedema thickness 0h [3]: 0.00 ± 0.00 mm; Average oedema inhibition% [3]: 33.81%; IC50 [4]: 25.3 ± 1.01 µM
